Results: BindingDB's records for doi:10.1074/jbc.M113.490441 (University of Calgary, 2013)

Target: T1, Histidine-binding periplasmic protein [1-238] (Escherichia coli (strain 55989 / EAEC), UniProt P0AEU0)
T1 construct: 1-238
T1 sequence (P0AEU0 whole entry): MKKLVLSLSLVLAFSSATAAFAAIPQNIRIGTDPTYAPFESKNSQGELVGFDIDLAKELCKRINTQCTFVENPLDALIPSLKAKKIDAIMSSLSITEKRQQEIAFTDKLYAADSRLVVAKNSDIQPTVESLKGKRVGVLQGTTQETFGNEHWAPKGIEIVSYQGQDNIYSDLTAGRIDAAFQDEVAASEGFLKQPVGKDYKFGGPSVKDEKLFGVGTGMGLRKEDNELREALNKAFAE
Assay: Isothermal Titration Calorimetry (ITC)
Conditions: pH 7; 30 °C
Description: All ITC experiments were performed using a Microcal VP-ITC microcalorimeter (GE Healthcare). All samples were prepared in a buffer containing 20 mM HEPES (pH 7.0) and 100 mM NaCl. The syringe was filled with 0.5 mM histidine that was injected into the ITC cell containing 20 μM protein (D1, D2, or HisJ) solution at 30 °C.

## N[C@@H](Cc1c[nH]cn1)C(=O)O [L-2-Amino-3-(4-imidazolyl)propionic acid]
  Kd: 114 nM
